Laboratory results published in paper PMC5318275 (Chemical research in toxicology, 2017).
Where two headings read alike, the source gives them in different places.

Columns and labels:
hMT1 melatonin receptor [1] = biological target: T1, hMT1 melatonin receptor (Homo sapiens, UniProt P48039); test: biochemical; assay type: binding; settings: for ratio KiGTP/KiControl, human MT1: 100 μM GTP vs control; for ratio KiGTP/KiControl, human MT1 / Ki: mean ± SEM; for apparent intrinsic efficacy at hMT1 from GTP shift: classified by KiGTP/KiControl: agonists >1, antagonists =1, inverse agonists <1; for Ki: human MT1 Ki value, 25 °C, 1 h
hMT1 melatonin receptor [2] = biological target: T1, hMT1 melatonin receptor; test: biochemical; assay type: binding
hMT2 melatonin receptor [3] = biological target: T2, hMT2 melatonin receptor (Homo sapiens, UniProt P49286); test: biochemical; assay type: binding; settings: for fold higher affinity for hMT2 than for hMT1: competition with 2-[125I]-iodomelatonin binding; for ratio MT1/MT2 (KiMT1/KiMT2): fold difference in affinity between hMT1 and hMT2
T2 sequence (P49286 1-362): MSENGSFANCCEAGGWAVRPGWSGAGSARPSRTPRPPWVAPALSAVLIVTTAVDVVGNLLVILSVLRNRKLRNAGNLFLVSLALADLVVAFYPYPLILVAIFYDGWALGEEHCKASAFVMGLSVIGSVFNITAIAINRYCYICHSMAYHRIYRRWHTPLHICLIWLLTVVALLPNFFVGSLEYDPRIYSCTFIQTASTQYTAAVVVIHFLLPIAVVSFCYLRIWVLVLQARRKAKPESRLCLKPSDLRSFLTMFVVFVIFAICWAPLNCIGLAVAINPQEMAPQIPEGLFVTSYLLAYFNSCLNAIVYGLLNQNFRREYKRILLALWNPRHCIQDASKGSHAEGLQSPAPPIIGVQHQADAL

hMT2 melatonin receptor [4] = biological target: T2, hMT2 melatonin receptor; test: biochemical; assay type: binding; settings: for ratio KiGTP/KiControl, human MT2: 100 μM GTP vs control; for ratio KiGTP/KiControl, human MT2 / Ki: mean ± SEM; for apparent intrinsic efficacy at hMT2 from GTP shift: classified by KiGTP/KiControl: agonists >1, antagonists =1, inverse agonists <1; for Ki: human MT2 Ki value, 25 °C, 1 h
hMT2 = settings: read-out: Ki hMT2; competition for 2-[125I]-iodomelatonin (300 pM); cited from earlier work
hMT1 = settings: read-out: Ki hMT1; competition for 2-[125I]-iodomelatonin (300 pM); cited from earlier work
serotonin levels = settings: single oral dose 60 mg/kg; cited from earlier work

T1 sequence (P48039 whole entry): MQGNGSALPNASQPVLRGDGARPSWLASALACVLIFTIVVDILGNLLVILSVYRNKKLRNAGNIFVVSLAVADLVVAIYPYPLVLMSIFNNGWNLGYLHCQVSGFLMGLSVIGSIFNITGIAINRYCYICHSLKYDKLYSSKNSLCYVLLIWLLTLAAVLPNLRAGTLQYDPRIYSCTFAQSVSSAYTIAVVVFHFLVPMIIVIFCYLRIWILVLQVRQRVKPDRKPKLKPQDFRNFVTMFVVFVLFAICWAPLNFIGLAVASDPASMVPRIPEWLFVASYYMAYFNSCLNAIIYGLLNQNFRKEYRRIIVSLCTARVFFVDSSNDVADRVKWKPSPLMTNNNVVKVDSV

Compound | ratio KiGTP/KiControl, human MT1 (hMT1 melatonin receptor [1]) | apparent intrinsic efficacy at hMT1 from GTP shift (hMT1 melatonin receptor [1]) | Ki (hMT1 melatonin receptor [1]; GTP, presence of 100 μM GTP) [nM] | Ki (hMT1 melatonin receptor [1]; control, absence of GTP) [nM] | Ki (hMT1 melatonin receptor [2]) [nM] | Ki (hMT2 melatonin receptor [3]) [nM] | fold higher affinity for hMT2 than for hMT1 (hMT2 melatonin receptor [3]) [fold] | ratio MT1/MT2 (KiMT1/KiMT2) (hMT2 melatonin receptor [3]) | ratio KiGTP/KiControl, human MT2 (hMT2 melatonin receptor [4]) | apparent intrinsic efficacy at hMT2 from GTP shift (hMT2 melatonin receptor [4]) | Ki (hMT2 melatonin receptor [4]; GTP, presence of 100 μM GTP) [nM] | Ki (hMT2 melatonin receptor [4]; control, absence of GTP) [nM] | Ki (hMT2) [nM] | Ki (hMT1) [nM] | levels of serotonin (serotonin levels) | Ki (hMT1 melatonin receptor [2]; affinity at hMT1, text of discussion, equals the Table 2 control value) [nM]
CNC(=O)Oc1cccc2c1OC(C)(C)C2 [carbofuran, 2,3-dihydro-2,2-dimethyl-7-benzofuranyl methylcarbamate] | 0.59 ± 0.24 | antagonist/inverse agonist | 29900 ± 8600 | 63500 ± 12500 | 58500 ± 8250 | 1680 ± 240 | 35 | 34.8 | 10.8 ± 4.2 | agonist efficacy | 12100 ± 2630 | 1670 ± 390 | – | – | – | –
CC(=O)NCCc1c(Cc2ccccc2)[nH]c2ccccc12 [luzindole] | – | – | – | – | – | – | – | – | – | – | – | – | 7.3 | 179 | – | –
CCC(=O)NC1Cc2ccccc2C(c2ccccc2)C1 (centres unmarked) [4P-PDOT] | – | – | – | – | – | – | – | – | – | – | – | – | 0.41 | 658 | – | –
CNC(=O)Oc1cccc2ccccc12 [carbaryl, 1-naphthyl methylcarbamate] | 0.65 ± 0.16 | antagonist/inverse agonist | 1210 ± 110 | 2330 ± 530 | – | 70 ± 10 | 33 | 32.4 | 4.82 ± 0.82 | agonist | 310 ± 30 | 70 ± 5 | – | – | increased | 2330
